Measured values reported in patent US20230103444A1 (The Regents of the University of Colorado, a Body Corporate, priority 2020, published 2023).
Several values for one entry are separate records, joined by “and”; a condition that tells them apart may be missing. Identical values can stand only once. Entries after “also recorded” stand apart in the source; their conditions may differ.

Key:
SW620 cells = test: Annexin V-FITC apoptosis assay; format: cell-based, human; conditions: 12 h, compared to DMSO; positive control SN-38
Method: SW620 cells were plated at 30,000 cells/well in 96-well plates. […] Cells were then rinsed 2× with cold PBS, 1× with cold Annexin-V staining buffer (10 mM HEPES, pH 7.4, 140 mM NaCl, 2.5 mM CaCl2), and then incubated with Annexin-V FITC at 1:100 for 30 min in the dark. Cells were then rinsed 2× with Annexin-V staining buffer and FITC intensity was measured using an EnVision® plate reader (PerkinElmer, Hopkinton, Mass.).

[1] = Pharmacokinetics in CD-1 mice
Method: Whole blood was harvested at specific time points and the separated plasma frozen at −80° C. for storage or used for LC-MS/MS analysis.

[2] = Accumulation in SW620 xenograft tumors and liver; format: in vivo, athymic nude mice; conditions: 50 mg/kg i.p. QD 5 days, n=4
Method: Growth was monitored with caliper measurements 3× per week. […] Treatments were administered i.p. QD over five days. Mice were sacrificed 2 h after the final dose on day five of the treatment.

[3] = Liver toxicity, histological evaluation; format: in vivo, athymic nude mice; design: key to Liver Inflammation score: 0 = none; 1 = minimal; 2 = mild; 3 = moderate; 4 = severe; key to Liver Assessment: N = normal background lesion for mouse strain; A = abnormal; conditions: for liver toxicity, in words: 50 mg/kg i.p. QD 5 days
Method: Two million VimPro-GFP SW620 cells suspended in 100 μL of a 1:1 mixture of Matrigel® matrix (Corning Life Sciences, Corning, N.Y.) and RPMI 1640 were injected into the flanks of 9-week old female athymic nude mice (Nude-Foxn1nu (069)) (Envigo, Huntingdon, Cambridgeshire, UK). Growth was monitored with caliper measurements 3× per week. […] Treatments were administered i.p. QD over five days. Mice were sacrificed 2 h after the final dose on day five of the treatment.

[4] = tested on: VimPro-GFP SW620 xenograft tumors; test: Pharmacodynamic Western blot of xenograft tumor tissue; format: in vivo, athymic nude mice; conditions: 50 mg/kg i.p. QD 5 days
Method: CRC cell lines and homogenized tumor tissue samples from mice were resuspended in RIPA lysis buffer (20 mM Tris-HCl (pH 7.5), 150 mM NaCl, 1 mM Na2EDTA, 1 mM EGTA, 1% NP-40, 1% sodium deoxycholate, 2.5 mM sodium pyrophosphate, 1 mM b-glycerophosphate, 1 mM Na3VO4, 0.1 mM PMSF. Protein concentration was determined using the Pierce™ BCA protein assay kit (ThermoFisher, Waltham, Mass.). Forty micrograms of sample were run on 10% Bis-Tris gels. Following electrophoresis, the proteins were transferred to a nitrocellulose membrane. The membranes were blocked at room temperature with 5% non-fat milk in TBS/Tween® 20 (TBST contains 20 mM Tris, 150 mM NaCl, and 0.1% Tween®20 (Croda International PLC, Snaith, UK) for 1 hour at room temperature. Membranes were washed three times with TBST. Blots were incubated with the appropriate primary antibody in 5% nonfat milk in TBST overnight at 4° C. Membranes were washed three times with TBST and then incubated with appropriate secondary antibody for one hour. Membranes were washed again with TBST three times. […]
Two million VimPro-GFP SW620 cells suspended in 100 μL of a 1:1 mixture of Matrigel® matrix (Corning Life Sciences, Corning, N.Y.) and RPMI 1640 were injected into the flanks of 9-week old female athymic nude mice (Nude-Foxn1nu (069)) (Envigo, Huntingdon, Cambridgeshire, UK). Growth was monitored with caliper measurements 3× per week. […]

[5] = tested on: CRC042 patient-derived tumor organoids; test: Patient tumor organoid cytotoxicity; format: cell-based; conditions: Homo sapiens; single agent, Table 4A
TCF-transcription = test: TOPflash TCF-transcriptional reporter assay; format: cell-based, human; conditions: TOPflash reporter in CRC cell lines (SW620, HCT116, DLD1CHD1L-OE), 24 h; listed as 8
Method: TOPflash assay (Millipore, Billerica, Mass.) was used to evaluate TCF transcriptional activity in CRC cells. A total of 20,000 cells per well were plated into 96-well white plates and transfected with TransIT®-LT1 transfection reagent (Mirus, Madison, Wis.). Cells were incubated with transfection mix for 24 h. Next, cells were washed with phosphate-buffered solution (PBS) and a 1:1 ratio of PBS:ONE-Glo™ luciferase reagent Promega (Madison, Wis.) was added and the luminescence was detected within 10 min. A duplicate experiment was conducted to measure cell viability using CellTiter-Glo® Luminescent Cell Viability Assay (Promega, Madison, Wis.), which was used to normalize TOPflash luminescence to obtain the fold change in TCF activity. Experiments were replicated 2× (n=3 for each experiment).
TCF-transcriptional Reporter Assay. […] Afterwards, cells from the white solid bottom plate were carefully washed with PBS and a 1:1 ratio of PBS:One-Glo Luciferase Assay System (Promega) was added, incubated for 10 min, and luminescence was quantified on Envision plate reader (PerkinElmer) for TCF-activity. As a control, cells from the clear plate were lysed with Mammalian Cell Lysis Buffer (Promega) and the total protein from each well was quantified with BCA assay (ThermoFisher).

Method for SW620 tumor xenografts: In vivo studies. […] Body weight and tumor volumes were monitored 2×/week. […] In addition, irinotecan was administered i.p. at 50 mg/kg.

Row | SMILES | apoptosis (annexin-V staining) (SW620 cells) | AUC(0-t) ([1]; female, CD-1, mouse, plasma, ip, 50 mg/kg) [ng·h/mL] | Cmax ([1]; female, CD-1, mouse, plasma, ip, 50 mg/kg, CMax (ng/mL), single i.p. 50 mg/kg) [ng/mL] | CMax (ng/mL) ([1]; plasma, single i.p. 50 mg/kg, 50 mg/kg) | CL ([1]; single i.p. 50 mg/kg) [L/h/kg] | V2 ([1]; single i.p. 50 mg/kg) [L/kg] | concentration accumulated in SW620 tumors [2] | Liver Assessment ([3]; 50 mg/kg QD 5 days, one line per animal, listed as Compound 6.0) | Liver Inflammation score ([3]; 50 mg/kg QD 5 days, one line per animal, scored if abnormal) | liver toxicity, in words [3] | liver toxicity, in words ([3]; listed as 6.0) | epithelial marker ZO-1 and cleaved caspase 3 in tumor tissue [4] | mesenchymal markers vimentin, vimentin reporter (VimPro-GFP) and slug in tumor tissue [4] | IC50 [5] [µM] | tumor volume, combination with irinotecan (SW620 tumor xenografts; compound 6 5 mg/kg i.p. 2×/day + irinotecan 60 mg/kg i.p. 1×/week, 28 days, vs single agents or control) | tumor volume after the last treatment, combination with irinotecan (SW620 tumor xenografts; compound 6 + irinotecan vs irinotecan alone, last treatment day 28) | survival of tumor-bearing mice, combination with irinotecan (SW620 tumor xenografts; compound 6 + irinotecan, compared to vehicle and single agents) | survival of tumor-bearing mice, compound alone (SW620 tumor xenografts; compound 6 alone, compared to vehicle) | inhibition of TCF-transcription, in words (TCF-transcription)
1 | Cc1cc(Nc2ccc(NC(=O)Cc3cccs3)cc2)nc(N2CCCC2)n1 [Compound 6, N-(4-((6-methyl-2-(pyrrolidin-1-yl)pyrimidin-4-yl)amino)phenyl)-2-(thiophen-2-yl)acetamide] | induced significant apoptosis | 80300 | ~30000 | 29,900 ng/mL | 0.62 | 2.7 | 10,533±5,579 ng/mL | N (2×) and A (2×) | 1 | no evidence of hepatocyte degeneration, necrosis, hyperplasia, or parenchymal inflammation | no apparent liver toxicity; also recorded: does not display any liver toxicity | not statistically significant, upregulation of the epithelial marker ZO-1 and induction of cleaved caspase 3 | significant downregulation | 18.6 | significantly inhibit colon SW620 tumor xenografts to almost no tumor volume | significantly inhibits colon SW620 tumors to almost no tumor volume beyond the last treatment | significantly increases the survival | significantly increases the survival | –
2 | Cc1cc(Nc2ccc(NC(=O)c3c[nH]c4ccccc34)cc2)nc(N2CCCC2)n1 [Compound 6.3, N-(4-((6-methyl-2-(pyrrolidin-1-yl)pyrimidin-4-yl)amino)phenyl)-1H-indole-3-carboxamide] | – | – | – | – | – | – | – | – | – | – | – | – | – | – | – | – | – | – | potent low μM dose-dependent inhibition; also recorded: more potent dose dependent inhibition
